US11952582B2, “Herbicide-resistance gene and application thereof in plant breeding” (priority 2017, dated 2024)
“Also recorded” adds a separate entry of the source.

Tests used:
[1] = tested on: Arabidopsis WT, OE At, OE Pa, OE M3 seedlings; assay: Herbicide resistance after Arabidopsis germination (seedlings transferred to herbicide medium); format: in vivo, Arabidopsis thaliana
Experimental: In order to further confirm the correctness of the results obtained in the germination test, an analysis experiment on herbicide resistance after Arabidopsis germination was conducted. Arabidopsis seedlings germinated by OE At, OE Pa, OE M3 and WT for 7 days were transferred to ½ MS medium containing different concentrations (0, 100, 250, 500, and 1000 nM) of mesotrione and grown for 1 week. 5 seedlings were treated per genotype with 3 biological replicates. After 1 week, the effect of the herbicide treatment (i.e., albino) was photographed.

[2] = tested on: Arabidopsis WT, OE At, OE Pa, OE M3 seedlings; assay: NBT and DAB staining of Arabidopsis seedlings (superoxide, hydrogen peroxide); format: in vivo, Arabidopsis thaliana; details: 100 nM, 72 h
Experimental: (§1) 2 week-old Arabidopsis seedlings were cultured continuously in ½ MS mediums with 100 nM mesotrione and without mesotrione for 72 h, and then transferred to 3.5 mg/mL NBT staining solution (prepared with potassium phosphate buffer containing 10 mM NaN3) and soaked in vacuum for 2 min, and then placed on a shaker overnight. The NBT-stained plants were placed in a mixed solution of acetic acid:glycerol:ethanol=1:1:3 (v/v/v) and destained at 100° C. for 5 min, then reserved in a mixed solution of glycerol:ethanol=1:4 (v/v), and was used to take photos to record the test results.
as §1, with “DAB” for “3.5 mg/mL NBT”, “solution,” for “solution (prepared with potassium phosphate buffer containing 10 mM NaN3)”, “for 7-8 hours.” for “overnight.”, “DAB-stained” for “NBT-stained”, “glycerol: ethanol=1:4” for “glycerol:ethanol=1:4”
2 week-old T3 generation Arabidopsis seedlings of WT, OE At, OE Pa and OE M3 were transfered to different control (½ MS medium) and treatment medium (½ MS medium containing 100 nM mesotrione) for 72 h, and then stained with NBT and DAB to detect the accumulation of reactive oxygen species.

[3] = tested on: Arabidopsis WT (Col0), OE At, OE Pa, OE M3 lines; assay: Arabidopsis seed germination test on herbicide-containing 1/2 MS medium; format: in vivo, Arabidopsis thaliana; details: 2 weeks
Experimental: In order to evaluate the resistance of different HPPD overexpression lines to herbicides, Arabidopsis seed germination tests were performed on media containing different concentrations of herbicides. T3 generation Arabidopsis seeds and Co10 (WT) seeds were performed steam surface sterilization (concentrated HCl: NaClO=1:5, v/v) for 3 h. Seeds of OE At (OE At #1, OE At #2), OE Pa (OE Pa #1, OE Pa #2), OE M3 (OE M3 #1, OE M3 #2) and Co10 (WT) were dibbled together in ^1/2 MS medium (0.5 x MS salt, 1% sucrose and 0.8% agar) in a 24-well plate, and the medium contained different concentrations (0, 31.25, 62.5, 125, 500 and 2000 nM) of mesotrione (Sigma Aldrich, USA) and sulcotrione (Sigma Aldrich, USA). Then, the plate dibbled seeds was placed in the dark at 4° C. for 3 d, and then transferred to a growth chamber at 22° C. (16 h light/8 h dark) for 2 weeks. Three biological replicates were performed per treatment per species. After 2 weeks, the test results were photographed.

[4] = tested on: HPPD, VTE1 and VTE3 gene expression in Arabidopsis seedlings; assay: qRT-PCR of HPPD and vitamin E biosynthesis genes in Arabidopsis after herbicide treatment; format: in vivo, Arabidopsis thaliana; details: 250 nM, 6 h
Experimental: 2 week-old T3 generation seedlings of WT, OE At, OE Pa and OE M3 were used as materials to set up a treatment group and a control group, respectively, wherein the treatment group was continuously cultured in ½ MS liquid medium containing 250 nM mesotrione for 6 h. The total RNA of related materials was extracted using Super Fast Plant RNA Extraction Kit (Beijing Huayueyang Biological Technology Co., Ltd., China). The concentration of RNA samples was measured using NanoDrop ND1000 (Thermo Scientific, USA). RNA samples with an absorbance ratio (at wavelengths of 260/280 nm and 260/230 nm) of approximately 2.0 were selected. The total RNA (1,000 ng) was then used for synthesis of cDNA for reverse transcription using a cDNA synthesis kit (One-step Removal of Transcript gDNA and cDNA Synthesis Super Kit, TransGen).
As for quantitative reverse transcription PCR analysis, 3.0 μL cDNA was used as a template in a 20 μL reaction system to detect the expression levels of HPPD as well as VTE1 and VTE3 genes which encode the key enzymes in the biosynthesis of vitamin E, and actin was used as an internal reference gene. Three technical repetitions were performed on the Bio-Rad CFX96 real-time system. REST software was used for statistical analysis.

[5] = tested on: WT (William 82) and OE PaHPPD-SDM soybean leaves; assay: Soybean resistance to herbicide at leaf level (leaf coating); format: in vivo; details: leaf coating 0-30 μM, 2 weeks
Experimental: Transgenic T0 generation OE SDMHPPD and WT soybean (William 82) seedlings were planted in pots and placed in an artificial climate room (27° C., […], light/dark) for growth. After 4 weeks, 0, 1, 5, 10 and 30 μM of mesotrione (prepared with 0.1% Tween-20) and 0.1% Tween-20 were dipped with cotton swabs and evenly coated to the leaves of OE SDMHPPD (OE SDM #12 and OE SDM #13) T0 generation and WT seedlings having a height of 30-40 cm. Then, the phenotype was observed every week, and the experimental result was recorded by taking photos 2 weeks after the treatment.
To further test the resistance of transgenic soybeans to herbicides, 20 μM mesotrione (prepared with 0.1% Tween-20) and 0.1% Tween-20 were dipped with cotton swabs and evenly coated to the trifoliate leaves of 2 week-old WT, OE GmHPPD (OE GmHPPD #9) T1 generation seedlings and OE SDMHPPD (OE SDMHPPD #12) T1 generation. Then, the phenotype was observed every day, and the experimental result was recorded by taking photos 10 days after the treatment.

[6] = tested on: WT (William 82), OE GmHPPD and OE PaHPPD-SDM T1 soybean plants; assay: Soybean resistance to herbicide at whole plant level (spraying); format: in vivo; details: 20 μM sprayed twice
Experimental: 20 μM mesotrione (prepared with 0.1% Tween-20) and 0.1% Tween-20 were spray to 4 week-old transgenic T1 generation OE SDMHPPD, T1 generation OE GmHPPD and WT soybean which were grown in an artificial climate chamber (27° C., […], light/dark) for the first time. A second spray was applied after 1 week. Then the phenotype of the plants was observed very day, and the experimental result was recorded by taking photos 2 weeks after the treatment.

CS(=O)(=O)c1ccc(C(=O)C2C(=O)CCCC2=O)c([N+](=O)[O-])c1 [mesotrione]
cotyledon phenotype ([1]; OE At and OE Pa, 250 nM, 1 week): albino | concentration at which seedlings grew well (maximum tolerance concentration of seedlings) ([1]; OE M3, 7-day seedlings, 1 week on 1/2 MS medium): 250 nM | concentration at which cotyledons were albino ([1]; WT, 7-day seedlings, 1 week on 1/2 MS medium): 100 nM | accumulation of superoxide and hydrogen peroxide of OE M3 compared with WT, OE At and OE Pa [2]: significantly less; also recorded: significantly reduced | concentration giving albino death / severely inhibited growth ([3]; OE At (two lines) and WT): 31.25 nM | concentration at which seedlings grow normally ([3]; OE Pa (two lines), T3 seeds): 62.5 nM | expression levels of HPPD, VTE1 and VTE3 compared with untreated seedlings ([4]; OE At, OE Pa and WT lines): inhibited to varying degrees | HPPD gene expression level compared with untreated seedlings ([4]; OE M3 line): basically not inhibited | gene expression levels of VTE1 and VTE3 compared with untreated seedlings ([4]; OE M3 line): up-regulated | concentration at which leaves did not show symptoms of albino (bleaching) and damage ([5]; OE PaHPPD-SDM soybean line): 30 µM | concentration at which leaves showed albino (bleaching) symptom ([5]; wild-type soybean William 82): 5 µM | phenotype after whole plant spraying ([6]; OE PaHPPD-SDM T1 line): grew normally | phenotype after whole plant spraying ([6]; wild-type William 82 and OE GmHPPD T1 line): albino symptom and growth retardation
